The values that follow come from publication PMC6017909, “Synthesis and Evaluation of the Tumor Cell Growth Inhibitory Potential of New Putative HSP90 Inhibitors” (Molecules : A Journal of Synthetic Chemistry and Natural …, 2018).

Data set [1] deals with NCI-H460. Briefly: Sulforhodamine B (SRB) cell growth inhibition assay. It is filed as cell-based. Particulars: Homo sapiens, 48 h treatment. The protocol:
(§1) The following human tumor cell lines were used and maintained in RPMI-1640 medium with UltraGlutamine I and 25 mM Hepes (Lonza, Basel, Switzerland), supplemented with 5% FBS (Biowest): NCI-H460 (non-small cell lung adenocarcinoma), AGS (gastric adenocarcinoma) and MCF-7 (breast adenocarcinoma). The HFF-1 cell line (human foreskin fibroblasts) was cultured in DMEM High Glucose with L-Glutamine supplemented with 15% FBS. All cell lines were routinely maintained at 37 °C in a humidified incubator with 5% CO2. Cell number and viability were determined with the trypan blue exclusion assay. All the experiments were performed with exponentially growing cells presenting more than 90% cell viability.
(§2) The growth inhibitory effect of the compounds was assessed using the Sulforhodamine B (SRB) assay as previously described. Briefly, cells were plated into 96-well plates (5000 cells/well for MCF-7 and NCI-H460 cells and 7500 cells/well for AGS cells) and incubated for 24 h to adhere. Serial dilutions of the different compounds (ranging from 0 to 150 μM or from 0 to 50 μM) were then added to the cells. Cells were further incubated for 48 h. Following this period (or at the time the compound is added, T0), plates were fixed with 10% ice-cold trichloroacetic acid. Following staining with 0.4% SRB, plates were washed with 1% acetic acid and the bound dye solubilized with 10 mM Tris-Base. […] For the HFF-1 cell line, cells (15,000 cells/well) were plated into 96-well plates, allowed to adhere for 24 h and treated with the GI50 concentration of each compound for seven days. After this period, the SRB assay was carried out as described above. The effect of the maximum concentration of vehicle (solvent) of the compounds (H2O: 0.31% for compound 8 and 0.19% for compound 13) was also analyzed in each assay.

Data set [2] concerns AGS. The data set is described as above. The format is cell-based. Conditions: Homo sapiens, 48 h treatment. The method, then: as §1, §2
Data set [3] relates to MCF7. The description is as above. The format is cell-based. Particulars: Homo sapiens, 48 h treatment. The protocol: as §1, §2
For data set [4], the system named is A431 squamous cell carcinoma xenografts. As to the kind of experiment: Tumor growth of xenografted mouse model. The format is in vivo, nude mice. The protocol:
Experiments were carried out using female athymic Swiss nude mice, 8–10 weeks old (Charles River, Calco, Italy). Mice were maintained in laminar flow rooms keeping temperature and humidity constant. Mice had free access to food and water. Experiments were approved by the Ethics Committee for Animal Experimentation of the Istituto Nazionale Tumori of Milan according to institutional guidelines. Epidermoid carcinoma cells, A-431 suspended in culture media were subcutaneously injected on the back of mice. When tumors were just palpable, the mice were randomly divided into two groups: control and compound-treated. Each group was constituted by 8 mice. Saline (0.9% NaCl) or compound solution (5 or 10 mg/kg, respectively) was i.p. administered daily during 3 weeks, to both groups. Tumor volume was assessed using calipers and determined according to the formula (d)^2xD/2.

Data set [5] concerns NCI-H460. Briefly: Cell-counting assay, 72-h drug exposure. It is filed as cell-based. Conditions: Homo sapiens, read-out: Cell Growth Inhibitory Activity NCI-H460 IC50 72 h. The text has this: For the cytotoxic activity studies and determination of GI50 concentrations in three different tumor cell lines, the cell culture conditions are described in Section 3.5. For the studies on the effect on % viable cells, cell cycle, cellular proliferation, and apoptosis, culture conditions are described in Section 3.6.1. For the remaining studies, the epithelial carcinoma cell line A431 and the non-small cell lung carcinoma cell line NCI-H460 were routinely grown in RPMI 1640 (Lonza, Vierviers, Belgium), supplemented with 10% (v/v) heat-inactivated fetal bovine serum (FBS, GIBCO, Invitrogen, Paisley, UK). The human peritoneal mesothelioma cell line STO was kindly provided by Dr. N. Zaffaroni (IRCCS Istituto Nazionale Tumori, Milan, Italy) and grown in 50/50 DMEM-Ham’s F12 medium (Lonza, Vierviers, Belgium), supplemented with 10% (v/v) heat-inactivated foetal bovine serum and 2 mM L-glutamine (L-Gln). All cell lines were maintained at 37 °C in a 5%/95% CO2/air atmosphere. All the compounds tested were freshly prepared by dissolving powder in dimethylsulfoxide (DMSO) (BDH Prolabo, Milan, Italy) and following dilution in culture medium. Cells were incubated with drugs for 48 h or 72 h (unless otherwise stated) at 37 °C in culture medium supplemented with 10% (v/v) heat-inactivated FBS; drug concentrations used for each assay and duration of treatments are reported in Legends to Figures.
Cellular sensitivity to drugs was evaluated by a cell-counting assay after 72-h drug exposure. Cells in the logarithmic phase of growth were seeded in duplicate into 6-well plates. Twenty-four hours after seeding, the drug was added to the medium. Cells were harvested 72 h after drug exposure and counted with a cell counter.

Data set [6] deals with T1, HSP90 (Homo sapiens, UniProt P07900).
T1 construct: purchased Stressgen SPP-776
As to the kind of experiment: HSP90 binding, fluorescence polarization with GM-FITC. Particulars: displacement of GM-FITC 5 nM, 30 nM HSP90, 4 °C, 4 h; read-out: Binding HSP90 (FP) IC50. The protocol:
GM-FITC Geldanamycin-fluorescein-5-isothiocyanate (working concentration: 1–400 nM), supplied by Invivogen (06C23-MT, San Diego, CA, USA), was previously dissolved in DMSO to obtain 10 mM stock solutions and kept at −20 °C until use. […] The compounds were previously dissolved in DMSO to obtain stock solutions and kept at −20 °C. The day of experiment, the compounds were prepared by serial dilutions in assay buffer (HFB) containing 20 mM HEPES (K) pH 7.3, 50 mM KCl, 5 mM MgCl2, 20 mM Na2MoO4 and 0.01% NP40. Before each use, 0.1 mg/mL Bovine Gamma globulin and 2 mM DTT were freshly added. […] The plate was mixed on a shaker at 4 °C for 4 h, and the FP values in mP (millipolarization units) were recorded. […] Curve fitting was performed using Prism GraphPad software program (GraphPad software, Inc., San Diego, CA, USA).

Take `O=c1c2ccccc2oc2c[n+](Cc3ccccc3)ccc12.[Br-]` [Compound 5, 2-Benzyl-10-oxo-10H-9-oxa-2-azonia-anthracene bromide]: the 50% growth inhibitory concentration (GI50) turned out to be 5.2 ± 1.2 µM in data set [1], 6.9 ± 1.2 µM in data set [2] and 5.4 ± 0.6 µM in data set [3]. Moreover, the “Inhibition of tumor growth vs control group” value was “considerable inhibition of tumor growth” in data set [4] (5 mg/kg i.p. daily for three weeks) and “accentuated this difference to statistically significant values” in data set [4] (10 mg/kg i.p. daily for three weeks). The “Manifestations of toxicity (death and body weight loss)” value in data set [4] (5 and 10 mg/kg i.p., three weeks) is given as “no evident manifestations of toxicity”. Besides, in data set [5], the IC50 worked out at 4.8 ± 0.1 µM.

On to `O=c1c2ccccc2sc2c[n+](Cc3ccccc3)ccc12.[Br-]` [Compound 8, 2-Benzyl-5-oxo-5H-thiochromeno[2,3-c]pyridin-2-ium bromide], for which the IC50 in data set [6] was found to be 3.7 ± 0.03 µM. For the same molecule, the 50% growth inhibitory concentration (GI50) in data set [1] worked out at 3.2 ± 0.1 µM; in data set [2] it was 3.1 ± 0.3 µM; in data set [3], 3.2 ± 0.1 µM.
